The experiment has as its system mammary cancer cells MCF-7. Description: Proliferation measurement of mammary cancer cells MCF-7 (resazurin, 72 hrs exposure). In kind it is cell-based. Particulars: for IC50: Homo sapiens; for Inhibition percentage: screening, single values and Averages. How it is done:
Detailed Procedure of the Proliferation Measurement of Mammary Cancer Cells MCF-7
1st Part Day 1: Sowing the Cells
1. Preparation of the Medium:
• Preparation of the volume to be put into the plates:
In a 50 mL Falcon, prepare 30 mL of complete RPMI with 10% FCS and 1% Glutamine: 27 mL of RPMI: 3 mL of FCS and 300 μL of Glutamine.
2. Preparation of the Cell Suspension:
• Suck up the medium contained in the flask with the vacuum pump • Rinse with 3 mL of PBS and suck up with the vacuum pump • Add 1 mL of trypsin and let it act for 3 mins in the oven at 37° C. in order to detach the cells. • When the cells are detached, add 2 mL of complete medium prepared previously for inactivating the trypsin. • Mix well the suspension by suction-discharge and transfer into a well-defined Falcon 15. • Count the cells in a Malassez cell: carry out dilution to one 20th for counting them with Trypan blue.
• Sow the plates with 200 μL of cell suspension according to the determined scheme • Put 200 μL of water in the peripheral wells • Leave for incubation for 24 hours.
2nd Part: Day 2, the Extract is Exposed
4. Preparation of the Medium:
A total of 45 mL of medium to be prepared in a Falcon 50 sterilized i.e. 40.5 mL of RPMI+4.5 mL of FCS+450 μL of glutamine
5. Preparation of the Extracts:
• prepare a 10 mg/mL solution: • Dissolve 8.1 mg of crude extract (noted as SF) according to Example 1, of the SF 5 fraction according to Example 2 or of the KP-18^E fraction (Guieranone B) in 810 μL of DMSO • Prepare the mother solution of extract (Ex) at 100 μg/mL i.e. 50 μL of (10 mg/ml) in 4,950 μL of RPMI • Produce the range of extracts (for 1 extract and only 1 range). • Remove the medium in the plates and add 200 μL per well of an extract range (one column per concentration). • Incubate the plates in the oven at 37° C. for 72 hrs.
6. Prepare Resazurin (Developer) and Read the Plate to
2 columns of cells+one column of resazurin alone=3 columns
200 μL/well×3 columns×6 lines=3,600 μL (total volume to be prepared: 5 mL) • Prepare 4.9 mL of medium+100 μL resazurin
Remove the medium and add 200 μL of (medium+resazurin) per well. • Incubate for 2 hours and read with fluorskan. 3rd Part: Measurement of Proliferation at 24 Hours (for t0), 72 Hrs for Extract • For the extract at 72 hrs:
200 μL/well×18 columns×6 lines (total volume to be prepared: 25 mL) • Prepare 24.5 mL of RPMI+500 μL of resazurin • Remove the medium and add 200 μL of (medium+resazurin) per well. • After 2 hours, readout with fluorskan.
Background: Alamar Blue is a resazurin reagent that responds to reducing activity.

[1] abbreviates: MCF7, MCF-7 mammary cancer cell line, same conditions (Table 2), read-out: Average Cl50 in μM.
The mark [2] stands for this setting: MCF7, MCF-7 mammary cancer cell line, same conditions (Table 2), read-out: Average Cl50 in μg/mL.
[3] abbreviates: MCF7, mammary cancer line MCF-7, same conditions (Table 15, identical with Table 2), read-out: Average CI50 in μM.
Setting [4] is: MCF7, mammary cancer line MCF-7, same conditions (Table 15, identical with Table 2), read-out: Average CI50 in μg/mL.

Values joined by “and” are separate entries in the source; they are usually repeats but may differ in a detail not shown here. Identical values can stand only once. Like-named read-outs stand apart in the source and are kept apart here.

For `O=c1[nH]cc(F)c(=O)[nH]1` [5-FU, 5-Fluorouracil, reference compound], the IC50 is, setting by setting: under setting [1], 4.04 ± 0.39 µM; under setting [2], 0.53 ± 0.05 µg/mL; under setting [3], 4.04 ± 0.39 µM; under setting [4], 0.53 ± 0.05 µg/mL.
On to `C/C=C/C(=O)C1=CC(OC)=C2C(=O)C(OC)=CC(OC)=C2C1=O` [Guieranone B], for which the IC50 is 2.25 µg/mL (MCF7, 72 h, KP-18E, MCF-7, 72 hrs, average of the 6 tests, read-out: Average C150); 2.05 µg/mL (MCF7, 72 h, KP-18E, MCF-7, 72 hrs, each of the 6 tests (1-2, N1-N3), read-out: CI50 (the source's name)); 7.09 µM under setting [1]; 2.24 ± 0.13 µg/mL under setting [2]; 7.09 µM under setting [3]; 2.24 ± 0.13 µg/mL under setting [4]. In addition, the Inhibition percentage is 49.86% and 36.10% and 48.15% and 50.66% and 53.59% and 53.16% (KP-18E 1.5 μg/mL, MCF-7, 72 hrs); 48.59% (KP-18E 1.5 μg/mL, MCF-7, 72 hrs, mean); 68.59% and 62.54% and 43.35% and 59.58% and 61.13% and 48.79% (KP-18E 2 μg/mL, MCF-7, 72 hrs); 57.33% (KP-18E 2 μg/mL, MCF-7, 72 hrs, mean); 69.73% and 57.84% and 59.61% and 65.92% and 65.73% and 68.02% (KP-18E 2.5 μg/mL, MCF-7, 72 hrs); 64.48% (KP-18E 2.5 μg/mL, MCF-7, 72 hrs, mean). The Inhibition percentage (KP-18E 3 μg/mL, MCF-7, 72 hrs) was 94.22% and 77.40% and 86.16% and 83.19% and 84.81% and 92.10%; the Inhibition percentage (KP-18E 3 μg/mL, MCF-7, 72 hrs, mean) was 86.31%; the Inhibition percentage (KP-18E 4 μg/mL, MCF-7, 72 hrs) was 100.00% and 99.38%; the Inhibition percentage (KP-18E 4 μg/mL, MCF-7, 72 hrs, mean) turned out to be 99.90%; the Inhibition percentage (KP-18E 5 μg/mL, MCF-7, 72 hrs) is on record as 100.00%. For the same compound, the CI50 (KP-18E, MCF-7, 72 hrs, each of the 6 tests (1-2, N1-N3)) is 2.7202 µg/mL and 2.1664 µg/mL and 2.5518 µg/mL and 2.067 µg/mL and 1.9176 µg/mL. For the same compound, where the note is “line of mammary cancer cells MCF-7”, the “antiproliferative activity (in words)” value is reported as “high antiproliferative activity”.

For the origin of these results see patent publication US20140348958A1, “Anticancer Active Ingredient From Guiera Senegalensis” (UNIVERSITE D'AUVERGNE CLERMONT I, priority 2011, published 2014).
